Key:
Meloidogyne incognita = Meloidogyne incognita test; assay type: in vivo; conditions: 20 ppm, lettuce, after 14 days
Procedure: Solvent: 125.0 parts by weight of acetone To produce a suitable active compound preparation, 1 part by weight of active compound is mixed with the stated amount of solvent and the concentrate is diluted to the desired concentration with water. Vessels are filled with sand, active compound solution, an egg/larvae suspension of the southern root-knot nematode (Meloidogyne incognita) and lettuce seeds. The lettuce seeds germinate and the plants develop. The galls develop on the roots. After 14 days, the nematicidal efficacy in % is determined by the formation of galls. 100% means that no galls were found; 0% means that the number of galls on the treated plants corresponds to the untreated control.

Myzus persicae [1] = assay: Myzus persicae spray test (MYZUPE); assay type: in vivo; conditions: 120 h; for pest or weed control at 500 g/ha / pest or weed control at 100 g/ha: foliar, Chinese cabbage leaf discs, after 5 days, read-out: efficacy; for Emax at 20 g/ha: MYZUPE, 5 dat, read-out: % efficacy
Procedure: Solvent: 78 parts by weight of acetone • • 1.5 parts by weight of dimethylformamide
(§1) Emulsifier: alkylaryl polyglycol ether
(§2) To produce a suitable active compound preparation, 1 part by weight of active compound is dissolved with the specified parts by weight of solvent and made up to the desired concentration with water containing an emulsifier concentration of 1000 ppm. To produce further test concentrations, the formulation is diluted with emulsifier-containing water.
Discs of Chinese cabbage leaves (Brassica pekinensis) infested by all stages of the green peach aphid (Myzus persicae) are sprayed with an active compound preparation of the desired concentration.
(§3) After 5 days, the efficacy in % is determined. 100% means that all the aphids have been killed; 0% means that no aphids have been killed.
(§4) Solvent: 78.0 parts by weight of acetone • • 1.5 parts by weight of dimethylformamide
After the desired period of time, the efficacy in % is determined. 100% means that all the aphids have been killed; 0% means that no aphids have been killed.

Ctenocephalides felis [2] = assay: Ctenocephalides felis oral test; assay type: in vivo; conditions: 100 ppm in citrated cattle blood, adult cat fleas, after 2 days
Procedure: Solvent: dimethyl sulfoxide To produce a suitable active compound preparation, 10 mg of active compound are mixed with 0.5 ml of dimethyl sulfoxide. Dilution with citrated cattle blood gives the desired concentration. About 20 unfed adult cat fleas (Ctenocephalides felis) are placed into a chamber which is closed at the top and bottom with gauze. A metal cylinder whose bottom end is closed with parafilm is placed onto the chamber. The cylinder contains the blood/active compound preparation, which can be imbibed by the fleas through the parafilm membrane. After 2 days, the kill in % is determined. 100% means that all of the fleas have been killed; 0% means that none of the fleas have been killed.

Myzus persicae [3] = assay: Myzus persicae oral test; assay type: in vivo; conditions: 120 h, after 5 days, read-out: efficacy
Procedure: Solvent: 100 parts by weight of acetone
To produce a suitable active compound preparation, 1 part by weight of active compound is dissolved with the stated parts by weight of solvent and made up to the desired concentration with water.
50 μl of the active compound preparation are transferred into microtitre plates and made up to a final volume of 200 μl with 150 μl of IPL41 insect medium (33%+15% sugar). Subsequently, the plates are sealed with parafilm, which a mixed population of green peach aphids (Myzus persicae) within a second microtitre plate is able to puncture and imbibe the solution.
as §3

Nilaparvata lugens = Nilaparvata lugens spray test (NILALU); assay type: in vivo; conditions: 96 h, 4 dat, read-out: % efficacy
Procedure: (§5) Solvent: 52.5 parts by weight of acetone • 7 parts by weight of dimethylformamide
as §1
(§6) To produce a suitable active compound preparation, 1 part by weight of active compound is dissolved with the specified parts by weight of solvent and made up to the desired concentration with water containing an emulsifier concentration of 1000 ppm. To produce further test concentrations, the formulation is diluted with emulsifier-containing water. If the addition of ammonium salts or/and penetrants is required, these are each added in a concentration of 1000 ppm to the formulation solution.
Rice plants (Oryza sativa) are sprayed with an active compound preparation of the desired concentration and then populated with larvae of the brown planthopper (Nilaparvata lugens).
After the desired period of time, the efficacy in % is determined. 100% means that all of the planthoppers have been killed; 0% means that none of the planthoppers have been killed.

Lucilia cuprina = Lucilia cuprina test; assay type: in vivo; conditions: 100 ppm, L1 larvae, after 2 days
Procedure: Solvent: dimethyl sulfoxide To produce a suitable active compound preparation, 10 mg of active compound are mixed with 0.5 ml of dimethyl sulfoxide, and the concentrate is diluted with water to the desired concentration. About 20 L1 larvae of the Australian sheep blowfly (Lucilia cuprina) are transferred into a test vessel containing minced horsemeat and the active compound preparation of the desired concentration. After 2 days, the kill in % is determined. 100% means that all the larvae have been killed; 0% means that no larvae have been killed.

Tetranychus urticae = Tetranychus urticae spray test, OP-resistant (TETRUR); assay type: in vivo; conditions: for efficacy / Emax at 100 g/ha: 100 g/ha; for efficacy: bean leaf discs, after 6 days; for Emax at 100 g/ha / Emax at 500 g/ha: Tetranychus urticae, 144 h, TETRUR, read-out: % efficacy; for Emax at 100 g/ha: 6 dat (comparative table); for Emax at 500 g/ha: 6 dat
Procedure: as §4, §1, §2
Discs of bean leaves (Phaseolus vulgaris) infested with all stages of the greenhouse red spider mite (Tetranychus urticae) are sprayed with an active compound preparation of the desired concentration.
After 6 days, the efficacy in % is determined. 100% means that all the spider mites have been killed; 0% means that no spider mites have been killed.
After the desired period of time, the efficacy in % is determined. 100% means that all the spider mites have been killed; 0% means that no spider mites have been killed.

[4] = log P by HPLC on reversed-phase column (EEC Directive 79/831 Annex V.A8); assay type: physicochemical; conditions: reversed-phase C18 HPLC column, C 18 reversed phase, 55° C., pH 7.8, read-out: log P (neutral)
Excerpt: Called log P (neutral) in the table.

Ctenocephalides felis [5] = assay: Ctenocephalides felis in vitro contact test with adult cat fleas; assay type: in vivo; conditions: 5 μg/cm^2 (=500 g/ha), after 48 h
Procedure: For the coating of the test tubes, 9 mg of active compound are first dissolved in 1 ml of acetone p.a. and then diluted to the desired concentration with acetone p.a. 250 μl of the solution are distributed homogeneously on the inner walls and the base of a 25 ml glass tube by turning and rocking on an orbital shaker (rocking rotation at 30 rpm for 2 h). With 900 ppm of active compound solution and internal surface area 44.7 cm^2, given homogeneous distribution, an area-based dose of 5 μg/cm^2 is achieved.
After the solvent has evaporated off, the tubes are populated with 5-10 adult cat fleas (Ctenocephalides felis), sealed with a perforated plastic lid and incubated in a horizontal position at room temperature and ambient humidity. After 48 h, efficacy is determined. To this end, the tubes are stood upright and the fleas are knocked to the base of the tube. Fleas which remain motionless at the base or move in an uncoordinated manner are considered to be dead or moribund.
100% efficacy means that all the fleas were dead or moribund. 0% efficacy means that no fleas were harmed.

Nezara viridula = Nezara viridula spray test (NEZAVI); assay type: in vivo; conditions: 96 h, 4 dat, read-out: % efficacy
Procedure: as §5, §1, §6
Barley plants (Hordeum vulgare) infected with larvae of the Southern green shield bug (Nezara viridula) are sprayed with an active compound preparation of the desired concentration.
After the desired period of time, the efficacy in % is determined. 100% means that all of the shield bugs have been killed; 0% means that none of the shield bugs have been killed.

Phaedon cochleariae = Phaedon cochleariae spray test (PHAECO); assay type: in vivo; conditions: for efficacy: larvae on Chinese cabbage leaf discs, after 7 days; for Emax at 20 g/ha: Phaedon cochleariae, 168 h, PHAECO, 7 dat, read-out: % efficacy
Procedure: as §4, §1, §2
After 7 days, the efficacy in % is determined. 100% means that all the beetle larvae have been killed; 0% means that no beetle larvae have been killed.
After the desired period of time, the efficacy in % is determined. 100% means that all the beetle larvae have been killed; 0% means that no beetle larvae have been killed.

Compound	nematicidal efficacy (formation of galls) (Meloidogyne incognita) [%]	efficacy (kill in %) (Ctenocephalides felis [2]) [%]	pest or weed control at 4 ppm (Myzus persicae [3]) [%]	pest or weed control at 20 ppm (Myzus persicae [3]) [%]	pest or weed control at 100 g/ha (Myzus persicae [1]) [%]	further results
CCS(=O)(=O)c1ccc(NC(=O)NCCC#N)nc1-c1nc2cc(C(F)(F)F)ncc2n1C [Example I-2]	100	100	100	100	–	pest or weed control at 500 g/ha (Myzus persicae [1]): 90%
CCS(=O)(=O)c1ccc(NC(=O)n2cc(Br)cn2)nc1-c1nc2cc(C(F)(F)F)ncc2n1C [Example I-13]	–	–	90	–	90	–
CCS(=O)(=O)c1ccc(NC(=O)N2CCCC2)nc1-c1nc2cc(C(F)(F)F)ncc2n1C [Example I-14]	–	–	100	–	90	–
CCS(=O)(=O)c1ccc(N(C)C(=O)NC)nc1-c1nc2cc(C(F)(F)F)ncc2n1C [Example I-12]	–	–	–	–	90	Emax at 4 g/ha (Nilaparvata lugens): 90%; Emax at 20 g/ha (Myzus persicae [1]): 90%
CCS(=O)(=O)c1ccc(NC(=O)NCCOC)nc1-c1nc2cc(C(F)(F)F)ncc2n1C [Example I-5]	100	80	100	100	–	pest or weed control at 500 g/ha (Myzus persicae [1]): 100%; efficacy (kill in %) (Lucilia cuprina): 100%
CCS(=O)(=O)c1ccc(NC(=O)NCC[S+](C)[O-])nc1-c1nc2cc(C(F)(F)F)ncc2n1C (stereo not shown) [Example I-3]	90	100	100	100	100	efficacy (Tetranychus urticae): 100%
CCS(=O)(=O)c1ccc(NC(=O)NC)nc1-c1nc2cc(C(F)(F)F)ncc2n1C [Example I-4, 1-[5-Ethylsulfonyl-6-[3-methyl-6-(trifluoromethyl)imidazo[4,5-c]pyridin-2-yl]-2-pyridyl]-3-methylurea]	–	100	–	–	–	chromatographic logP [4]: 1.83; pest or weed control at 500 g/ha (Myzus persicae [1]): 90%; efficacy (Ctenocephalides felis [5]): 100%; efficacy (kill in %) (Lucilia cuprina): 100%; Emax at 20 g/ha (Nezara viridula): 100%; efficacy (Phaedon cochleariae; 500 g/ha): 100%
CCS(=O)(=O)c1ccc(NC(=O)N(C)C)nc1-c1nc2cc(C(F)(F)F)ncc2n1C [Example I-15]	100	–	100	–	90	efficacy (Phaedon cochleariae; 100 g/ha): 100%
CCS(=O)(=O)c1ccc(NC(C)=O)nc1-c1nc2cc(C(F)(F)F)ncc2n1C [reference compound]	–	–	–	–	–	Emax at 20 g/ha (Nezara viridula): 0%
CCS(=O)(=O)c1ccc(NC(=O)NC(C)C)nc1-c1nc2cc(C(F)(F)F)ncc2n1C [Example I-7]	90	100	–	–	–	–
CCS(=O)(=O)c1ccc(N(C)C(C)=O)nc1-c1nc2cc(C(F)(F)F)ncc2n1C [Example No. 69 known from WO 2016/124557, reference compound]	–	–	–	–	–	Emax at 4 g/ha (Nilaparvata lugens): 0%; Emax at 20 g/ha (Myzus persicae [1]): 0%
CCC(=O)Nc1ccc(S(=O)(=O)CC)c(-c2nc3cc(C(F)(F)F)ncc3n2C)n1 [Example No. 13 known from WO 2016/124557, reference compound]	–	–	–	–	–	Emax at 20 g/ha (Phaedon cochleariae): 50%; Emax at 100 g/ha (Tetranychus urticae): 0%; Emax at 500 g/ha (Tetranychus urticae): 70%
CCS(=O)(=O)c1ccc(NC(=O)NCCS(C)(=O)=O)nc1-c1nc2cc(C(F)(F)F)ncc2n1C [Example I-8]	–	100	90	100	90	efficacy (Tetranychus urticae): 100%
CCS(=O)(=O)c1ccc(NC(=O)NCCSC)nc1-c1nc2cc(C(F)(F)F)ncc2n1C [Example I-6]	–	–	100	100	90	efficacy (Phaedon cochleariae; 100 g/ha): 100%; efficacy (Tetranychus urticae): 70%
CCNC(=O)Nc1ccc(S(=O)(=O)CC)c(-c2nc3cc(C(F)(F)F)ncc3n2C)n1 [Example I-1]	100	100	–	–	–	pest or weed control at 500 g/ha (Myzus persicae [1]): 90%; efficacy (Phaedon cochleariae; 500 g/ha): 100%; Emax at 20 g/ha (Phaedon cochleariae): 83%; efficacy (Tetranychus urticae): 90%; Emax at 100 g/ha (Tetranychus urticae): 90%; Emax at 500 g/ha (Tetranychus urticae): 90%

Source: US11339155B2, “2-(het)aryl-substituted fused bicyclic heterocycle derivatives as pesticides” (Bayer CropScience Aktiengesellschaft, priority 2016, dated 2022)
